Measurements published in paper PMC9483557, “Reisomerization of retinal represents a molecular switch mediating Na^+ uptake and release by a bacterial sodium-pumping rhodopsin” (The Journal of Biological Chemistry, 2022).

Target: T1, IaNaR (Indibacter alkaliphilus, UniProt S2D3K4)
T1 construct: gene A33Q_3728; C-terminal His tag, E. coli BL21, vector pKA001, DDM-solubilised, Ni-NTA purified, reconstituted in Egg-PC liposomes
T1 sequence (S2D3K4 1-279): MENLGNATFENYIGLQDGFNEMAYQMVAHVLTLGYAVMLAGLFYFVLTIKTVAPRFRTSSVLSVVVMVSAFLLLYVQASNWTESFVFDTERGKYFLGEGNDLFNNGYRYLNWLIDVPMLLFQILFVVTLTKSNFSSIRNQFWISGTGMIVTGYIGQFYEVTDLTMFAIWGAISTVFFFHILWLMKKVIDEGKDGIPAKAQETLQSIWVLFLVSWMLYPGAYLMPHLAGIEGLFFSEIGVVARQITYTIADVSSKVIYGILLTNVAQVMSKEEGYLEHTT
Assay: time-resolved cryo-Raman ([…] nm preresonance) and absorption spectroscopy
Assay type: binding
Details: covalent; protonated Schiff base to helix G lysine; dark state all-trans; humidified film, 268 K, pH 8.0, NaCl

CC1=C(/C=C/C(C)=C/C=C/C(C)=C/C=O)C(C)(C)CCC1 [retinal]
time-resolved cryo-Raman (785 nm preresonance) and absorption spectroscopy: the vibrational modes of the RSB chromophore were selectively observed due to the preresonance enhancement
